These results are taken from patent US10898420B2, “Compositions containing phenolic compounds having synergistic antioxidant benefits” (L'OREAL, priority 2016, dated 2021).

A short description of assay [1]: Oxygen radical absorbance capacity (ORAC) assay, fluorescein probe with AAPH, Trolox standard. The following applies: individual antioxidant compound. As to the method:
(§1) Synergism was determined by comparing the antioxidant capacities of combinations of components measured by ORAC and HORAC, with expected or additive values of the individual compounds. The […], measure two different antioxidant properties, radical chain breaking and prevention of radical formation. The ORAC and HORAC assays are both fluorometric assays that use hydrogen atom transfer chemistry to detect oxidation of a fluorescent probe. In the ORAC assay, a free radical initiator is used to produce peroxyl radical probes, while in the HORAC assay, a hydroxyl radical initiator and fenton reagent are used to produce hydroxyl radical probes.
(§2) As reflected in the Examples below, the expected ORAC/HORAC is the combined (additive) antioxidant capacity of each individual antioxidant compound in the association, measured individually and assuming that each is functioning independently. The expected ORAC or HORAC value of a certain association can be calculated by using the following equation: ORAC or HORAC (total)=sum of ORAC or HORAC (compound n, individually) multiplied by the Percentage (compound n, of use in a cosmetic composition), n=1, 2, 3 . . . .
The ORAC assay is one of most commonly used methods to evaluate the capacity of antioxidants against ROS (reactive oxygen species), specific for peroxyl which is one of the most important free radicals present in the human skin environment. […] Azo-initiators are considered to produce the peroxyl radical by heating, which damages the fluorescent molecule, resulting in the loss of fluorescence. […] By quantifying the decay of fluorescence using a fluorometer, the degree of protection is determined comparing with a standard control antioxidant Trolox. […] Equipment that can automatically measure and calculate the capacity is commercially available, such as the VarioSkan flash microplate reader from Thermo Scientific.
References disclosing ORAC assays include: Cao G, Alessio H, Cutler R (1993). “Oxygen-radical absorbance capacity assay for antioxidants”. […]

Assay [2] can be described thus: Hydroxyl oxygen radical absorbance capacity (HORAC) assay, fluorescent probe with hydrogen peroxide and Cobalt(II) fluoride, Gallic acid standard. The following applies: individual antioxidant compound. As to the method:
as §1, §2
Similar to the ORAC assay, the HORAC assay is an in tubo assay designed to quantify the capacity of an antioxidant to avert the hydroxyl radical or anti-Fenton reaction. The hydroxyl radical, generated from hydrogen peroxide and Cobalt(II) fluoride (Fenton reaction), will quench a fluorescent probe by a hydrogen atom transfer reaction. Certain antioxidants can chelate the Co(II), preventing the generation of the hydroxyl radical and initially block or prevent the quenching of the probe. By quantifying the decay of fluorescence using a fluorometer, the degree of protection is determined comparing with a standard control antioxidant Gallic acid. The result is expressed in μMol equivalent of Gallic acid. Equipment that can automatically measure and calculate the capacity is commercially available, such as the VarioSkan flash microplate reader from Thermo Scientific. […]

Consider `O=C1O[C@H]([C@@H](O)CO)C(O)=C1O` [Vitamin C, ascorbic acid], for which the ORAC in assay [1] is 4456 μmolTolox/g. For the same molecule, in assay [2], the HORAC result is given as “No activity”.
As to `O=C(O)[C@H]1O[C@@H](Oc2cc3oc(-c4ccccc4)cc(=O)c3c(O)c2O)[C@H](O)[C@@H](O)[C@@H]1O` [baicalin], in assay [1], the ORAC was 4759 μmolTolox/g. In addition, the HORAC in assay [2] is recorded as 2592 μmolGAE/g.
The matching figures for `COc1cc(/C=C/C(=O)O)ccc1O` [ferulic acid]: 14272 μmolTolox/g and 9868 μmolGAE/g.
